Reference: US20050118244A1, “Transmittal therapeutic systems containing steroid hormones and propylene glycol monocaprylate” (LTS Lohmann Therapie-System AG, priority 2001, published 2005)

Test: Flux of active ingredient from transdermal therapeutic system in modified Franz diffusion cell
Format: in vitro ADME, human
Settings: for Cumulative amount of active ingredient after 3 days: human epidermis, 32° C.
Method: The measurements were carried out as follows: a modified Franz diffusion cell and, in each case, a transdermal therapeutic system with an effective diffusion area of 4.1 cm^2 was used. The test temperature was 32° C. The flux of active ingredient was measured on an epidermis from human skin. The acceptor used was an aqueous solution of 0.1% hydroxypropyl-β-cyclodextrin+0.1% NaN3; the acceptor volume was 9 ml (volume exchange after 32, 48, 56 and 72 hours).

SMILES	Cumulative amount of active ingredient after 3 days (TTS formula: Progestogen (Org 30659) 5.0 % by weight, Durotak 2287 90.0 %, propylene glycol monocaprylate 5.0 %) [μg/cm^2]	Cumulative amount of active ingredient after 3 days (TTS formula: Progestogen (Org 30659) 5.0 % by weight, Durotak 2287 95.0 %, no penetration promoter) [μg/cm^2]	Cumulative amount of active ingredient after 3 days (TTS formula: Testosterone 2.0 % by weight, Durotak 2287 93.0 %, propylene glycol monocaprylate 5.0 %) [μg/cm^2]	Cumulative amount of active ingredient after 3 days (TTS formula: Testosterone 2.0 % by weight, Durotak 2287 98.0 %, no penetration promoter) [μg/cm^2]	Increase of the flux of active ingredient on use of 5% propylene glycol monocaprylate (TTS with 5% propylene glycol monocaprylate versus TTS without, Examples 1 and 2)
C#C[C@]1(O)C=C[C@H]2[C@@H]3CCC4=CC(=O)CC[C@@H]4[C@H]3C(=C)C[C@@]21C [Progestogen (Org 30659), (17α)-17-hydroxy-11-methylene-19-norpregna-4,15-dien-20-yn-3-one]	51.3	44.7			
C[C@]12CC[C@H]3[C@@H](CCC4=CC(=O)CC[C@@]43C)[C@@H]1CC[C@@H]2O [Testosterone, testosterone]			36.2	30.2	about 20%
